We go through two molecules from patent US8927601B2, “Uses of N-butylidenephthalide in treating a liver injury and improving liver function” (National Dong Hwa University, priority 2011, dated 2015).

“Also recorded” adds a separate entry of the source.

In data set [1] the test system is TAA induced fibrotic livers. Kind of data set: Thioacetamide (TAA)-induced chronic liver fibrosis rat model: gross examination and histopathology (H&E, Masson's trichrome, Metavir score). The data set is classed as in vivo, Wistar rats. The procedure: (§1) 5 ml/kg of thioacetamide (TAA) was injected intraperitoneally into Wistar rats every three days for eight weeks to induce the liver damage. The therapy was performed starting from the fifth week during the thioacetamide induction. 80 mg/Kg/day or 500 mg/Kg/day of n-BP were orally administrated in experimental rats for four weeks.
(§2) To establish the chronic liver fibrosis model in rat, adult male Wistar rats (320±20 g) were used and were intraperitoneally injected with 200 mg/kg TAA (Sigma-Aldrich) once every 3 days for 8 weeks as the liver fibrosis model (78 rats). In the Normal group (24 rats), normal saline was used in place of the TAA. At the end of 4, 6, 8, and 10 weeks (i.e., day 28, 42, 56, and 70 respectively), these rats were sacrificed and cardiac blood samples were collected. These samples were analyzed with a biochemical analyzer (Integra 800; Roche, Holliston, Mass., USA) to measure the liver function index, which included glutamate oxaloacetate transaminase (GOT), glutamate pyruvate transaminase (GPT), serum albumin, total bilirubin and prothrombin time.
Afterwards, the histopathology of liver tissue samples obtained from the sacrificed rats were also analyzed. Liver tissue samples were fixed in 3.7% formaldehyde and then embedded in paraffin. Serial 3-μm sections of the embedded tissues were stained with hematoxylin and eosin or Masson's trichrome. Liver fibrosis is the excessive accumulation of collagen in liver, and therefore the accumulation of collagen is an important index for evaluating liver fibrosis. Masson's trichrome stain is frequently used to identify increases in collagenous tissue in fibrotic liver. For Masson's trichrome stain, sectioned samples were placed in Bouin's solution (Sigma-Aldrich) at 56° C. for 1 h and then were stained sequentially with the following solutions: Mayer's hematoxylin solution (Sigma-Aldrich) for 5 min, Biebrich scarlet-acid fuchsin solution (Sigma-Aldrich) for 15 min, phosphomolybdic acid-phosphotungstic acid (Sigma-Aldrich) for 15 min, and aniline blue (Sigma-Aldrich) for 5 min.
(§3) 78 rats with TAA induced fibrotic livers were randomly divided into 4 groups. For group 1 (TAA group), there were 24 rats which received no therapy. The remaining […] were divided into three groups: Control group, n-BP treated group I (BP 80 mg/kg group) and n-BP treated group II (BP 500 mg/kg group). For these three groups, from the beginning of week 5 to the end of week 8, olive oil, n-BP (80 mg/Kg/day), and n-BP (500 mg/Kg/day) were orally administrated once per day to the rats, wherein the dosage was 1 ml of olive oil per kilogram body weight (Control group), 1 ml of 80 mg/ml n-BP olive oil solution per kilogram body weight (BP 80 mg/kg group), and 1 ml of 500 mg/ml n-BP olive oil solution per kilogram of body weight (BP 500 mg/kg group), respectively. n-BP was purchased from Alfa Aesar®, cat. A10353.
(§4) At the end of 6, 8, and 10 weeks, rats of each group were sacrificed and cardiac blood samples were collected. These samples were analyzed with a biochemical analyzer (Integra 800; Roche, Holliston, Mass., USA) to measure the liver function index, which included glutamate oxaloacetate transaminase (GOT), glutamate pyruvate transaminase (GPT), serum albumin, and prothrombin time. Afterwards, the histopathology of liver tissue samples obtained from the sacrificed rats was also analyzed. Liver tissue samples were fixed in 3.7% formaldehyde and then embedded in paraffin. Serial 3-μm sections of the embedded tissues were stained with hematoxylin and eosin or Masson's trichrome as described above.

The test system of data set [2] is TAA induced fibrotic livers. Kind of data set: Thioacetamide (TAA)-induced chronic liver fibrosis rat model: liver function index in blood (GOT, GPT, total bilirubin, albumin, prothrombin time). The data set is classed as in vivo, Wistar rats. On the procedure:
as §1, §2, §3, §4

For a further data set, the system named is angina. To be noted: conscious rats; cited from earlier work.
The subject of data set [3] is alcoholic-induced liver cirrhosis. The settings on record: patients with alcoholic-induced liver cirrhosis; cited from earlier work.
Setting [4] is: both n-BP treated groups, end of week 10.

For the molecule `CCCC=C1OC(=O)c2ccccc21` [n-BP, n-butylidenephthalide], the “gross examination of the liver” value in data set [1] (BP 80 mg/kg group (No. 73, 78) and BP 500 mg/kg group (No. 81, 87)) was “become even better like normal liver morphology”. For the same molecule, in data set [1] (n-BP 80 or 500 mg/Kg/day oral), the “inflammatory activity scores (Metavir)” value is recorded as “improvement in the recovery of the damaged liver occurs 2 weeks after n-BP treatment”. The “fibrosis grade (Metavir), Masson's trichrome staining” value in data set [1] (n-BP 80 or 500 mg/Kg/day oral, weeks 5-8, on 42, 56 and 70 days, control group grade 3-4) is on record as 1-2. Also, the “fibrosis score versus control group (olive oil)” value in data set [1] (n-BP 80 or 500 mg/Kg/day oral, 42, 56 and 70 days) is “lower”. For the same molecule, the “collagen accumulation in liver (Masson's trichrome staining)” value in data set [1] (n-BP 80 or 500 mg/Kg/day oral, 42, 56 and 70 days (weeks 6, 8, 10)) is reported as “Collagen degradation was found; also recorded: almost no collagen accumulation”. The “liver damage in hematoxylin and eosin stained sections” value in data set [1] (n-BP 80 or 500 mg/Kg/day oral, end of 8 weeks and 10 weeks) was “recovery from tissue degeneration and vacuolation was evident”. Further, in data set [1] (therapy groups, n-BP 80 or 500 mg/Kg/day oral for four weeks), the “inflammation and accumulation of collagen fibers (histopathological examinations)” value is listed as “significantly reduced”. In addition, the “serum total bilirubin level” value in data set [2] (both n-BP treated groups, end of week 6 (two weeks after treatments) continuing to end of week 10) is “decline at the end of week 6”. In data set [2] (setting [4]), the prothrombin time result is on record as “decreased to approach that of the Normal group”, the “serum GOT level” value is listed as “decline to near-normal values”, the “serum GPT level” value is given as “decline to near-normal values” and the “serum total bilirubin level versus Control group” value is on record as “significantly lower”. Also, the prothrombin time entry in data set [2] (both n-BP treated groups, from the end of week 6) is on record as “decreases”. Moreover, the “liver function index including GOT, GPT, albumin, total bilirubin and prothrombin time, versus control group” value in data set [2] (n-BP 80 or 500 mg/Kg/day oral for four weeks) is given as “significant recovery of liver damage”. In data set [2] (n-BP treated groups, end of week 10), this molecule came in with a serum albumin level of 4.35 ± 0.47 g/dL. For the same molecule, in data set [2] (n-BP treated groups, ends of week 6 and week 8), the albumin level result is recorded as “rises”. In the data set with angina, the antianginal effect entry is reported as “relieves angina” and the “effect on blood pressure or heart rate” value is given as “without affecting blood pressure or the heart rate”.
Regarding `CC(=O)CCCCn1c(=O)c2c(ncn2C)n(C)c1=O` [Pentoxifylline], the mortality result in data set [3] is listed as “significantly reduce the mortality”.
